From publication PMC6222450, “Computer-Aided Studies for Novel Arylhydantoin 1,3,5-Triazine Derivatives as 5-HT6 Serotonin Receptor Ligands with Antidepressive-Like, Anxiolytic and Antiobesity Action In Vivo” (Molecules : A Journal of Synthetic Chemistry and Natural …, 2018)

Tests used:
Lipophilicity by RP-TLC = assay type: physicochemical; details: RP-18 TLC, water/methanol, extrapolated to 100% water
Procedure: For comparison, the active arylmethyl-triazine compounds previously found (1–3) were also examined. Stationary phase RP-18 and mixtures of water/methanol […] as a mobile phase were employed. RM values were calculated from the RF data obtained. […] The regression coefficients (r^2) determined for all compounds were higher than 0.95. On the basis of the linear relationship between RM values and the volume fraction of methanol, values of RM0 in the systems analyzed corresponding to 100% of water were obtained by extrapolation. RM0 values received for the compounds tested ranged from 3.14 to 4.49 (Figure 6).
The mobile phases were prepared by mixing the respective amounts of water and organic modifier (methanol) in a range from 40 to 90% (v/v) in 5% increments. TLC was performed on Silica gel 60RP-18 F254 plates (7 × 10 cm) plates (Merck, Darmstadt, Germany). Methanol was used to prepare the solutions of the substances. Solutions (10 µL) of the analyzed compounds were applied to the plates as 5 mm bands, 10 mm apart and 10 mm from the lower edge and sides of the plates, by using Linomat V applicator (Camag, Basel, Switzerland). The vertical chamber (Sigma–Aldrich, St. Louis, MI, USA), 20 × 10 × 18 cm in size, was saturated with mobile phase for 20 min. Development was carried out over 9 cm from the starting line at a temperature of 20 °C. Next, the plates were dried at room temperature, and the spots were observed under ultraviolet light at 254 nm and/or 366 nm (UV lamp, Camag, Basel, Switzerland). In each case, sharp and symmetric spots without a tendency for tailing were obtained. Each experiment was run in triplicate and mean RF (retardation factor) values were calculated.
Starting from the RF values, the RM parameters were computed as described in the formula:RM = log(1/RF − 1)
The linear correlations between the RM values of the substances and the concentration of methanol in mobile phases were calculated for each compound with the Soczewiński-Wachtmeister equation [22]:RM = RM0 + aC where C is the concentration of the organic modifier (in %) in the mobile phase, a is the slope, and RM0 is the […].

[1] = Body weight of non-obese rats fed only standard diet; assay type: in vivo, rat; details: rats consuming standard feed, 5 mg/kg b.w. i.p.
Procedure: Male Wistar rats (170–190 g) were housed in a pair in plastic cages in constant temperature facilities exposed to a light-dark cycle. Control group (standard diet + vehicle) received vehicle (1% Tween 80, intraperitoneally), while the test group (standard diet + 6 or standard diet + 26) was injected (intraperitoneally) with 6 or 26 at the dose of 5 mg/kg b.w. dissolved in 1% Tween 80 (1 mL/kg). Body weights were measured daily immediately prior to administration of drugs.

HEK-293 cells = assay: Toxicity in vitro, MTS test; assay type: cell-based; details: 0.1 μM–100 μM, 72 h
Procedure: The preliminary evaluation of the safety profile for the most promising 5-HT6R ligands 6 and 26 was performed in vitro with the HEK-293 eukaryotic cell line. The compounds examined were dissolved in culture growth media and incubated with cells for 72 h. Next, the MTS test was applied to determine the viability of the cells. […] The reference cytostatic drug doxorubicin (DX) at the very low concentration 1 μM was also cytotoxic.
The ATCC CRL 1573 HEK-293 cells were seeded in 96-well plates (NuncTM) at a concentration of 1 × 10^4 cells/well in 200 μL in Dulbecco’s Modified Eagle’s Medium (Gibco®) supplemented with 10% fetal bovine serum (Gibco®), and cultured at 37 °C in an atmosphere containing 5% of CO2 for 24 h to reach 60% confluence. The 10 mM stock solutions of 5-HT6R ligands 6 and 26 in DMSO were diluted into fresh growth medium and added into the microplates at the final concentrations 0.1 μM –100 μM. […] The cytostatic drug doxorubicin (Sigma-Aldrich) at the concentration 1 μM was used as a reference. After 72 h of incubation 20 μL of CellTiter 96® AQueous Non-Radioactive Cell Proliferation Assay (MTS) (Promega®) was added to each well and the cells were incubated under the same conditions for 2 h. The absorbance of the samples was measured using a microplate reader EnSpire (PerkinElmer, Waltham, MA, USA) at 490 nm. Statistical significance was analyzed by GraphPad Prism™ software v. 5.01 (GraphPad Software, La Jolla, CA, USA) using One-way ANOVA and Bonferroni’s Multiple Comparison Post Test.

5-HT2A = target: T1, 5-HT2A (Homo sapiens, UniProt P28223); assay: Radioligand binding assay, 5-HT2A, [3H]-Ketanserin; details: human receptor stably expressed in HEK-293 cells
T1 construct: expressed in transfected cells; host or cells: HEK-293
T1 sequence (P28223 whole entry): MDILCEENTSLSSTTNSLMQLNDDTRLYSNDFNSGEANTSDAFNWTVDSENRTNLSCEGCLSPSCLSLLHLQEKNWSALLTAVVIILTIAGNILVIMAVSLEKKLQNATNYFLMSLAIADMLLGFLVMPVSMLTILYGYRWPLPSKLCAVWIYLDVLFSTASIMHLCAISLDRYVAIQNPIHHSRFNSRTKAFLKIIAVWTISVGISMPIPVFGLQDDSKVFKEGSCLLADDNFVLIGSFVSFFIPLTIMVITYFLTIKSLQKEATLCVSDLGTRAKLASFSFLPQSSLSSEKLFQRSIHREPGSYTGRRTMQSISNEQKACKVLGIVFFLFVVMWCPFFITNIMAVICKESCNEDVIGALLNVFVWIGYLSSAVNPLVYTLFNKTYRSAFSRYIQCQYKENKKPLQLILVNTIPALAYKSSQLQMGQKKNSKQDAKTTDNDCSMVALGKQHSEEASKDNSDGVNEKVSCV

Q: For `CN1CCN(c2nc(N)nc(CN3C(=O)NC(C)(c4ccc5ccccc5c4)C3=O)n2)CC1` (stereo not shown) [Compound 26, 3-((4-Amino-6-(4-methylpiperazin-1-yl)-1,3,5-triazin-2-yl)methyl)-5-methyl-5-(naphthalen-2-yl)imidazolidine-2,4-dione], which RM0 (Lipophilicity by RP-TLC) is on record?
A: 3.76

Q: And the “effect on body weight” value [1]?
A: No effects on body weight

Q: And the “toxicity in HEK-293 cells” value (HEK-293 cells)?
A: no significant toxicity

Q: What about the Ki (5-HT2A) of the same molecule?
A: 17.2 µM
